Target: Tyrosine-protein kinase BTK (Homo sapiens, UniProt Q06187)
Assay: Inhibitory Assay: BTK enzyme evaluation with each compound of examples of the invention was performed by using BTK enzyme inhibition diagnosis kit (Cisbio, Codolet, France). ATP (adenosine triphosphate), BTK, peptide (biotin-Aca-[…]-NH2) and each compound of examples of the invention were mixed, followed by reaction for 30 minutes. Then, EDTA (ethylenediaminetetraacetic acid) was added thereto in order to terminate the reaction. At this time, the EDTA solution contained curopium-containing antibody (antiphosphoresidue antibody) and straptavidin-XL665 (SA-XL665, Cisbio). After incubation for 1 hour, fluorescence was measured. The emission values of 665 nm and 620 nm excited at 337 nm were measured with Envision reader.

Sequence of Tyrosine-protein kinase BTK (Q06187 whole entry): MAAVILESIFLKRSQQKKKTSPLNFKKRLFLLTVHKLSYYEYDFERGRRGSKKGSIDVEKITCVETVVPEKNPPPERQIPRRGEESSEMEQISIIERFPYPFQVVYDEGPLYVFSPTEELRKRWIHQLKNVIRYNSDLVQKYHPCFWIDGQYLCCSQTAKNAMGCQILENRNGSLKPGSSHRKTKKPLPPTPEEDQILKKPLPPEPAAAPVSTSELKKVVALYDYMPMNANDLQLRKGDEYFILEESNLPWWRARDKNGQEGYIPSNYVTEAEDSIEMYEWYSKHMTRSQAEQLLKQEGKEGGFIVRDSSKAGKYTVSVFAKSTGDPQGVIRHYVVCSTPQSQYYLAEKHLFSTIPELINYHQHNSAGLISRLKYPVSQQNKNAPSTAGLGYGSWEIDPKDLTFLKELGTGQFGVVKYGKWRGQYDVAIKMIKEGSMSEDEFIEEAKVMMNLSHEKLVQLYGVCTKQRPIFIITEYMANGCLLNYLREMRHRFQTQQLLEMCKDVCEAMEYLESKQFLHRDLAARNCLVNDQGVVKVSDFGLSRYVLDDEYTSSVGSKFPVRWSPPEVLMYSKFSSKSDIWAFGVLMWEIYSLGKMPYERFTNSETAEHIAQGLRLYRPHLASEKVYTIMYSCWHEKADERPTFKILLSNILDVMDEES

SMILES | IC50 [nM]
Cc1ccc(NC(=O)Nc2cccc(C(F)(F)F)c2)cc1Nc1nn(C)c2nc(Nc3ccc4c(c3)CNCC4)ncc12 | 26.7
Cc1cccc(C)c1Nc1n[nH]c2nc(Nc3ccc4c(c3)CNCC4)ncc12 | 0.3
Cn1nc(Nc2c(Cl)cccc2Cl)c2cnc(Nc3ccc4c(c3)CCNC4)nc21 | 0.67
Cc1cccc(C)c1Nc1nn(C)c2nc(Nc3ccc4c(c3)CNCC4)ncc12 | 0.6

From ChEMBL document CHEMBL5728637, “Pyrazolopyrimidine derivatives, preparation method thereof, and pharmaceutical composition for use in preventing or treating cancer, autoimmune disease and brain disease containing the same as an active ingredient” (2021)
